{"source": "ChEMBL document CHEMBL4130525", "about": "“gem-Dinitroalkyl Benzenes: A Novel Class of IOP-Lowering Agents for the Treatment of Ocular Hypertension” (ACS Med Chem Lett, 2017)", "key": {"Thoracic aorta [1]": {"test_system": "Thoracic aorta", "test": "Vasodilatory activity in denuded Wistar rat thoracic aorta assessed as relaxation of L-phenylephrine-induced contractions of aortic strips", "format": "functional, tissue-based"}, "Oryctolagus cuniculus [2]": {"test_system": "Oryctolagus cuniculus", "test": "Antiglaucoma activity in hypertonic saline-induced New Zealand albino rabbit transient ocular hypertensive model assessed as IOP lowering efficacy at 1% dose administered topically immediately after hypertonic saline injection measured at 60 mins post dose", "format": "functional"}, "Oryctolagus cuniculus [3]": {"test_system": "Oryctolagus cuniculus", "test": "Antiglaucoma activity in hypertonic saline-induced New Zealand albino rabbit transient ocular hypertensive model assessed as IOP lowering efficacy at 1% dose administered topically immediately after hypertonic saline injection measured at 120 mins post dose", "format": "functional"}, "Oryctolagus cuniculus [4]": {"test_system": "Oryctolagus cuniculus", "test": "Antiglaucoma activity in hypertonic saline-induced New Zealand albino rabbit transient ocular hypertensive model assessed as IOP lowering efficacy at 1% dose administered topically immediately after hypertonic saline injection measured at 240 mins post dose", "format": "functional"}, "[5]": {"test": "Lipophilicity, log P of the compound by shake flask method", "format": "physicochemical", "settings": "octanol/water"}, "[6]": {"test": "Induction of NO release assessed as nitrite formation at 0.1 mM in phosphate buffer saline at pH 7.4 in absence of L-cysteine measured after 1 hr by Griess assay", "format": "functional"}, "[7]": {"test": "Induction of NO release assessed as nitrite formation at 0.1 mM in phosphate buffer saline at pH 7.4 in absence of L-cysteine measured after 6 hrs by Griess assay", "format": "functional"}, "[8]": {"test": "Induction of NO release assessed as nitrite formation at 0.1 mM in phosphate buffer saline at pH 7.4 in presence of 5 mM of L-cysteine measured after 1 hr by Griess assay", "format": "functional"}, "[9]": {"test": "Induction of NO release assessed as nitrite formation at 0.1 mM in phosphate buffer saline at pH 7.4 in presence of 5 mM of L-cysteine measured after 6 hrs by Griess assay", "format": "functional"}, "[10]": {"test": "Induction of NO release assessed as nitrite formation at 0.1 mM in phosphate buffer saline at pH 7.4 in presence of 5 mM of L-cysteine by Griess assay", "format": "functional", "settings": "TDE = time-dependent effect"}, "Thoracic aorta [11]": {"test_system": "Thoracic aorta", "test": "Vasodilatory activity in denuded Wistar rat thoracic aorta assessed as relaxation of L-phenylephrine-induced contractions of aortic strips in presence of 1 uM of soluble guanylate cyclase inhibitor ODQ", "format": "functional", "parameters": "scale not given: the % may be the effect or the level left"}, "Oryctolagus cuniculus [12]": {"test_system": "Oryctolagus cuniculus", "test": "Antiglaucoma activity in carbomer-induced New Zealand albino rabbit transient ocular hypertensive model assessed as reduction in IOP at 1% dose administered topically everyday for 5 days measured 1 hr post drug instillation", "format": "functional, organism-based"}, "Oryctolagus cuniculus [13]": {"test_system": "Oryctolagus cuniculus", "test": "Antiglaucoma activity in carbomer-induced New Zealand albino rabbit transient ocular hypertensive model assessed as reduction in IOP at 1% dose administered topically measured after 24 hrs", "format": "functional, organism-based"}, "[14]": {"test": "n-Octanol-water distribution coefficient, log D of the compound at pH 7.4 after 20 mins by UV-spectrphotometric based shake-flask method", "format": "physicochemical"}, "[15]": {"test": "Ionization constant, pKa of the compound in KCl at pH 1.8 by potentiometric titration", "format": "physicochemical"}, "[16]": {"test": "Induction of NO release assessed as nitrite formation at 0.1 mM in HCl at pH 1.5 in absence of L-cysteine measured after 1 hr by Griess assay", "format": "functional"}, "[17]": {"test": "Induction of NO release assessed as nitrite formation at 0.1 mM in HCl at pH 1.5 in absence of L-cysteine measured after 6 hrs by Griess assay", "format": "functional"}, "[18]": {"test": "Drug metabolism assessed as anisic acid formation after 24 hrs by HPLC analysis", "format": "physicochemical"}, "[19]": {"test": "Induction of NO release assessed as nitrite formation at 0.1 mM in phosphate buffer saline at pH 1.5 to 7.4 measured up to 24 hrs by Griess assay", "format": "functional"}, "[20]": {"test": "Induction of NO release assessed as nitrite formation at 0.1 mM in phosphate buffer saline at pH 7.4 in presence of 5 mM of L-cysteine measured up to 24 hrs by Griess assay", "format": "functional"}, "[21]": {"test": "Induction of NO release assessed as nitrite formation at 0.1 mM in phosphate buffer saline at pH 7.4 in absence of L-cysteine measured up to 24 hrs by Griess assay", "format": "functional"}, "[22]": {"settings": "Rattus norvegicus, Thoracic aorta"}}, "note": "Several values for one entry are separate records, joined by “and”; a condition that tells them apart may be missing. Equal values may be shown once. Activity calls are given as the source filed them. The rule behind the calls is not given here."}
{"smiles": "CCOC(=O)[N-]c1c[n+](N2CCOCC2)no1", "note": "[MOLSIDOMINE]", "values": [{"measurement": "EC50", "setting": "Thoracic aorta [1]; [22]", "result": 18, "unit": "µM"}, {"measurement": "Activity", "setting": "Oryctolagus cuniculus [2]", "result": -4.6, "unit": "mmHg"}, {"measurement": "Activity", "setting": "Oryctolagus cuniculus [3]", "result": 0.12, "unit": "mmHg"}, {"measurement": "Activity", "setting": "Oryctolagus cuniculus [4]", "result": -0.34, "unit": "mmHg"}, {"measurement": "Drug metabolism", "setting": "Oryctolagus cuniculus [4]", "result": "Metabolite detected"}]}
{"smiles": "CC(c1ccccc1)([N+](=O)[O-])[N+](=O)[O-]", "values": [{"measurement": "logP", "setting": "[5]", "result": 2.34}, {"measurement": "Activity", "setting": "[6]", "result": "inactive"}, {"measurement": "Activity", "setting": "[7]", "result": "inactive"}, {"measurement": "Activity", "setting": "[8]", "result": "< 0.5", "unit": "%"}, {"measurement": "Activity", "setting": "[9]", "result": 2, "unit": "%"}, {"measurement": "Activity", "setting": "[10]", "result": "Tde"}, {"measurement": "EC50", "setting": "Thoracic aorta [1]", "result": "50 µM and 24 µM"}, {"measurement": "Activity", "setting": "Oryctolagus cuniculus [2]", "result": -5.6, "unit": "mmHg"}, {"measurement": "Activity", "setting": "Oryctolagus cuniculus [3]", "result": -10.5, "unit": "mmHg"}, {"measurement": "Activity", "setting": "Oryctolagus cuniculus [4]", "result": 0.3, "unit": "mmHg"}]}
{"smiles": "Cc1ccc(C(C)([N+](=O)[O-])[N+](=O)[O-])cc1", "values": [{"measurement": "logP", "setting": "[5]", "result": 2.69}, {"measurement": "Activity", "setting": "[6]", "result": "inactive"}, {"measurement": "Activity", "setting": "[7]", "result": "inactive"}, {"measurement": "Activity", "setting": "[8]", "result": "< 0.5", "unit": "%"}, {"measurement": "Activity", "setting": "[9]", "result": 1.3, "unit": "%"}, {"measurement": "Activity", "setting": "[10]", "result": "Tde"}, {"measurement": "EC50", "setting": "Thoracic aorta [1]", "result": "4 µM and 20 µM"}, {"measurement": "Activity", "setting": "Thoracic aorta [11]", "result": 24, "unit": "%"}, {"measurement": "Activity", "setting": "Oryctolagus cuniculus [2]", "result": -4.9, "unit": "mmHg"}, {"measurement": "Activity", "setting": "Oryctolagus cuniculus [3]", "result": -6.7, "unit": "mmHg"}, {"measurement": "Activity", "setting": "Oryctolagus cuniculus [4]", "result": -0.04, "unit": "mmHg"}, {"measurement": "Activity", "setting": "Oryctolagus cuniculus [12]", "result": "Active"}, {"measurement": "Activity", "setting": "Oryctolagus cuniculus [13]", "result": "Dose-dependent effect"}]}
{"smiles": "COc1ccc(C([N+](=O)[O-])[N+](=O)[O-])cc1", "values": [{"measurement": "logD at 20 min", "setting": "[14]", "result": -1.21}, {"measurement": "pKa", "setting": "[15]", "result": 3.9}, {"measurement": "Activity", "setting": "[16]", "result": 1.3, "unit": "%"}, {"measurement": "Activity", "setting": "[17]", "result": 4, "unit": "%"}, {"measurement": "EC50", "setting": "Thoracic aorta [1]; [22]", "result": 64, "unit": "µM"}, {"measurement": "Activity", "setting": "Oryctolagus cuniculus [2]", "result": -10.7, "unit": "mmHg"}, {"measurement": "Activity", "setting": "Oryctolagus cuniculus [3]", "result": -1.1, "unit": "mmHg"}, {"measurement": "Activity", "setting": "Oryctolagus cuniculus [4]", "result": "Active"}, {"measurement": "Drug metabolism", "setting": "[18]", "result": "Dose-dependent effect"}, {"measurement": "Activity", "setting": "[19]", "result": "Dose-dependent effect"}]}
{"smiles": "CC(c1ccc(C(F)(F)F)cc1)([N+](=O)[O-])[N+](=O)[O-]", "values": [{"measurement": "logP", "setting": "[5]", "result": 2.92}, {"measurement": "Activity", "setting": "[6]", "result": "inactive"}, {"measurement": "Activity", "setting": "[7]", "result": "inactive"}, {"measurement": "Activity", "setting": "[8]", "result": 0.8, "unit": "%"}, {"measurement": "Activity", "setting": "[9]", "result": 4.6, "unit": "%"}, {"measurement": "Activity", "setting": "[10]", "result": "Tde"}, {"measurement": "Activity", "setting": "Thoracic aorta [11]", "result": 19, "unit": "%"}, {"measurement": "Activity", "setting": "Oryctolagus cuniculus [2]", "result": -6.9, "unit": "mmHg"}, {"measurement": "Activity", "setting": "Oryctolagus cuniculus [3]", "result": -10.4, "unit": "mmHg"}, {"measurement": "Activity", "setting": "Oryctolagus cuniculus [4]", "result": -0.34, "unit": "mmHg"}]}
{"smiles": "COCCOCCOCCOc1ccc(C(C)([N+](=O)[O-])[N+](=O)[O-])cc1", "values": [{"measurement": "logP", "setting": "[5]", "result": 1.63}, {"measurement": "Activity", "setting": "[6]", "result": 2.6, "unit": "%"}, {"measurement": "Activity", "setting": "[7]", "result": 12.8, "unit": "%"}, {"measurement": "Activity", "setting": "[8]", "result": 2.7, "unit": "%"}, {"measurement": "Activity", "setting": "[9]", "result": 13.8, "unit": "%"}, {"measurement": "Activity", "setting": "[20]", "result": "Active"}, {"measurement": "Activity", "setting": "[21]", "result": "Active"}, {"measurement": "EC50", "setting": "Thoracic aorta [1]", "result": "55 µM and 264 µM"}, {"measurement": "Activity", "setting": "Oryctolagus cuniculus [2]", "result": -12.7, "unit": "mmHg"}, {"measurement": "Activity", "setting": "Oryctolagus cuniculus [3]", "result": 0.11, "unit": "mmHg"}, {"measurement": "Activity", "setting": "Oryctolagus cuniculus [4]", "result": "Active"}]}
{"smiles": "COc1ccc(C(C)([N+](=O)[O-])[N+](=O)[O-])cc1", "values": [{"measurement": "logP", "setting": "[5]", "result": 2.2}, {"measurement": "Activity", "setting": "[6]", "result": 3, "unit": "%"}, {"measurement": "Activity", "setting": "[7]", "result": 24.9, "unit": "%"}, {"measurement": "Activity", "setting": "[8]", "result": 3.5, "unit": "%"}, {"measurement": "Activity", "setting": "[9]", "result": 25.4, "unit": "%"}, {"measurement": "Activity", "setting": "[20]", "result": "Active"}, {"measurement": "Activity", "setting": "[21]", "result": "Active"}, {"measurement": "Activity", "setting": "Thoracic aorta [11]", "result": 40, "unit": "%"}, {"measurement": "Activity", "setting": "Oryctolagus cuniculus [2]", "result": -7.3, "unit": "mmHg"}, {"measurement": "Activity", "setting": "Oryctolagus cuniculus [3]", "result": -0.11, "unit": "mmHg"}, {"measurement": "Activity", "setting": "Oryctolagus cuniculus [4]", "result": "Active"}, {"measurement": "Activity", "setting": "[19]", "result": "Dose-dependent effect"}]}
